Bounds are passed on as bounds.

The record followed here is patent publication US9663486B2, “Selectively substituted quinoline compounds” (EISAI R&D MANAGEMENT CO., LTD., priority 2013, dated 2017).

In one assay the target is Human TLR4 (Homo sapiens, UniProt O00206). Description: HEK-293 NFkB-luciferase reporter assay, LPS stimulation. Conditions: ligand LPS. It is filed as cell-based. More on the design: stably and individually express human TLR4, TLR7 or TLR9 full-length ORF cDNAs; expressed in transfected cells; host or cells: HEK-293 (ATCC) with ELAM-1 NF-kappaB luciferase reporter. From the text: (§1) HEK-293 cells (ATCC) were engineered to stably express a NF-kappaB transcription factor inducible E-selectin (ELAM-1) luciferase reporter derived from the plasmid pGL3 (Promega) containing base pairs −2241 bp to −254 bp from the promoter of the human E-selectin gene (Accession No. NM_000450). These cells were then subsequently engineered to stably and individually express human TLR4, TLR7 or TLR9 full-length ORF cDNAs. Human TLR4 cDNA (Accession No. NM_138554) was cloned into pcDNA 3.0 expression vector (Invitrogen). TLR4 transfected cells were also engineered to express human MD-2 co-receptor [MD-2 cDNA (Accession No. NM_015364) was cloned into the pEF-BOS vector] and were supplemented with 10 nM soluble CD14 (R&D Systems) in the media to optimize LPS responsiveness. Human TLR9 cDNA (Accession No. NM_017442) was cloned into the pBluescript II KS vector (Agilent). Human TLR7 cDNA (Accession No. NM_016562) was obtained from OriGene. HEK-293 cells stably expressing human TLR8 (Accession No. NM_138636) or mouse TLR7 (Accession No. NM_133211) were purchased from InvivoGen and were then stably transfected with pNiFty2(NF-kappaB)-luciferase reporter plasmid (InvivoGen). Each cell type was plated in Dulbecco's modified Eagle's medium (DMEM) containing 10% fetal bovine serum (FBS) at a density of 2.22×10^5 cells/ml into a 384-well plate and incubated for 2 days at 37° C., 5% CO2. […]
In general terms: Reporter assays use an easily measured gene product as a stand-in for the process of interest.

The target of the next assay is T1, Human TLR9 (Homo sapiens, UniProt Q9NR96).
T1 sequence (Q9NR96 26-1032): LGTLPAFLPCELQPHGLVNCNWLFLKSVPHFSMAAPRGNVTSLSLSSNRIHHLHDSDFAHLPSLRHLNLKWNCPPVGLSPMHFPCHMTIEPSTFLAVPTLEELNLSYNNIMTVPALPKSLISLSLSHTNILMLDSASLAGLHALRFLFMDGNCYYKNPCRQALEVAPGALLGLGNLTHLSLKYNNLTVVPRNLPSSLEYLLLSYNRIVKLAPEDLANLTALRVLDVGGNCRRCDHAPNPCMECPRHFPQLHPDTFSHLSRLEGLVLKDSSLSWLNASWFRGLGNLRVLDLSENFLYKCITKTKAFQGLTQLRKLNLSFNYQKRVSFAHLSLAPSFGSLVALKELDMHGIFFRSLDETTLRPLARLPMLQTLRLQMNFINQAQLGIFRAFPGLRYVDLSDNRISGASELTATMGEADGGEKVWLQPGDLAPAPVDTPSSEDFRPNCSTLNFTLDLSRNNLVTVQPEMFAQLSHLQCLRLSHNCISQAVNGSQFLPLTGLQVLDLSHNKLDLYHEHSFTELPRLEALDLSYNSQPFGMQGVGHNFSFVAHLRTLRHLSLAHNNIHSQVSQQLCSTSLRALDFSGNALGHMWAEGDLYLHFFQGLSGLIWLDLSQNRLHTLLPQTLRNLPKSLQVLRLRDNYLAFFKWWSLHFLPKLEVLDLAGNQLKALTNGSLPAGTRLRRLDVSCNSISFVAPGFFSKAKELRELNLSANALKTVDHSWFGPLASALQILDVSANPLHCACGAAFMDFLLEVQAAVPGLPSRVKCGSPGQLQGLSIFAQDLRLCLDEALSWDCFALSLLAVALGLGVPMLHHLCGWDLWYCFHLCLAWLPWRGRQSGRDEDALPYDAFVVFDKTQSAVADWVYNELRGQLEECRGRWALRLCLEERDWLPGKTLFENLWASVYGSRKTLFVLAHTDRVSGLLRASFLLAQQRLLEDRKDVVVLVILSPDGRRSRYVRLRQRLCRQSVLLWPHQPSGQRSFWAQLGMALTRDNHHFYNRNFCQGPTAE
Description: HEK-293 NFkB-luciferase reporter assay, CpG-ODN stimulation. More on the design: stably and individually express human TLR4, TLR7 or TLR9 full-length ORF cDNAs; expressed in transfected cells; host or cells: HEK-293 (ATCC) with ELAM-1 NF-kappaB luciferase reporter. It is filed as cell-based. The settings on record: ligand CpG-ODN.
From the text: as §1

Human TLR4, sequence (O00206 24-839): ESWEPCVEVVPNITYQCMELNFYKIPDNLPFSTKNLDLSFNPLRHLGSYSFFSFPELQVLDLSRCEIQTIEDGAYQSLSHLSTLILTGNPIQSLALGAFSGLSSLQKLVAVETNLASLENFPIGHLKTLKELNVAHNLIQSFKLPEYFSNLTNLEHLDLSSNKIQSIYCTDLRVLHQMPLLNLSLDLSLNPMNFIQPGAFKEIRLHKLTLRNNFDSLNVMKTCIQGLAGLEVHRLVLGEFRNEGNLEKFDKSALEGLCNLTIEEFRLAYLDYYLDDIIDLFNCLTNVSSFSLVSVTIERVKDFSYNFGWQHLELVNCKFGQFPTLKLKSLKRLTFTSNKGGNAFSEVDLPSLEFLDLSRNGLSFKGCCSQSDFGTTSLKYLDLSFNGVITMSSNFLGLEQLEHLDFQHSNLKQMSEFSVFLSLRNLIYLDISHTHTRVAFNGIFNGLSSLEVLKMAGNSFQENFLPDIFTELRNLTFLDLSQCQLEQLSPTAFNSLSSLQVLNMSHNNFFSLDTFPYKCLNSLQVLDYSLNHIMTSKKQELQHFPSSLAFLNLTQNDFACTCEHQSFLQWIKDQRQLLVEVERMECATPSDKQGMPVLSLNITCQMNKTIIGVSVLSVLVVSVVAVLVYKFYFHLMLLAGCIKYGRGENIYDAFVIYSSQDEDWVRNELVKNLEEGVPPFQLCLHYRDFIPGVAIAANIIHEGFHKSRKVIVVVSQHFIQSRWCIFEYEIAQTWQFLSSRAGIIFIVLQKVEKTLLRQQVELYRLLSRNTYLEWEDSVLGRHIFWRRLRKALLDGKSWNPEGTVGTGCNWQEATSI
Human TLR4, sequence (Q9Y6Y9 19-160 partner): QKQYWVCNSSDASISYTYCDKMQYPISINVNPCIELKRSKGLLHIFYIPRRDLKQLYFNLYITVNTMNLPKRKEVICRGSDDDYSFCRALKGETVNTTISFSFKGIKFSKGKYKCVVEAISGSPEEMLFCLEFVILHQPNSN

In the case of `C[C@H]1C[C@@H](N)CN(c2ccc(C#N)c3ncccc23)C1` [ER-888840, 5-((3R,5S)-3-amino-5-methylpiperidin-1-yl)quinoline-8-carbonitrile], the IC50 (commonly the point on the concentration scale where inhibition reaches its midpoint) is greater than 10 µM against Human TLR4 and 8.77 µM on Human TLR9.
